Laboratory results taken from US20030049697A1, “Family of mechanosensitive human potassium channels activated by polyunsaturated fatty acids and their use” (CENTRE NATIONAL DE LA RECHERCHE SCIENTIFIQUE, C.N.R.S., priority 2000, published 2003).
One block for each molecule: values may come before it.

Tests used:
hTRAAK [1] = molecular target: T1, hTRAAK (Homo sapiens, UniProt Q9NYG8); assay: Whole cell configuration electrophysiology of hTRAAK current in transfected COS cells; type: cell-based
T1 construct: expressed in transfected cells; host or cells: COS-7 cells, transient DEAE-dextran transfection of pIRES-CD8.hTRAAK
T1 sequence (Q9NYG8 1-393): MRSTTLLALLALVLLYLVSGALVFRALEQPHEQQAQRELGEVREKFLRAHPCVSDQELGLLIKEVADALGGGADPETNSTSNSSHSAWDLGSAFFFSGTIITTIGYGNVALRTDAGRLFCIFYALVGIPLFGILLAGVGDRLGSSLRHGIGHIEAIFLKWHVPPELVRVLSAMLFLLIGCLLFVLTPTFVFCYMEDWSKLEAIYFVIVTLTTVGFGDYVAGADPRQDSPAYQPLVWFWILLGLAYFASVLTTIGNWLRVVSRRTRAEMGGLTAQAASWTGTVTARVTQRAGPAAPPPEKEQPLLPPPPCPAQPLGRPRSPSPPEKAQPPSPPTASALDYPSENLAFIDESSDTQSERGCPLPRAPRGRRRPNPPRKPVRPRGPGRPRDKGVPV
Experimental: Electrophysiological experiments were performed in COS cells transfected in a temporary manner.
It has been shown that certain members of the family of K^+ channels with two P domains (TREK-1 and TASK-1) are opened by volatile general anesthetics (Patel et al., 1999). We, therefore, also investigated the effect of chloroform on hTRAAK.
In fact, the opening of the channel is mediated by a deformation of the membrane (Maingret et al., 1999 (a); Patel et al., 1998).
The COS-7 cells were maintained in Eagle medium as modified by Dulbecco supplemented with 10% fetal calf's serum. The plasmid pIRES-cD8-hTRAAK was transfected using the conventional DEAE dextran procedure. The positive cells were visualized 48 h after transfection using the method of beads covered by the anti-CD8 antibody (Maingret et al., 1999 (a); Maingret et al., 1999 (b)).
For the experiments on whole cells and the outside-in experiments, the pipette solution (INT) contained 150 mM KCl, […], 5 mM EGTA and 10 mM HEPES, pH adjusted with KOH. The bath solution (EXT) contained 150 mM NaCl, 5 mM KCl, 3 mM MgCl2, 1 mM CaCl2 and 10 mM HEPES, pH 7.4 adjusted with NaOH. For the inside-out experiments, the solution in the pipette was EXT and the bath solution was INT. The EXT solution rich in K^+ contained 150 mM KCl in place of 150 mM NaCl. To study the selectivity of the ions, the relationships between the current and the voltage were obtained at different ext. K^+ concentrations. For each concentration, NaCl was replaced in the EXT solution by equimolar KCl.
All of the products were obtained from Sigma. The fatty acids were dissolved in ethanol at the concentration of 100 mM, put under argon and stored at […] for one week.

hTRAAK [2] = molecular target: T1, hTRAAK; assay: Excised patch (outside-out configuration) recording of hTRAAK in transfected COS cells; type: cell-based
Experimental: Under physiological conditions, the current induced by AA is outward rectifying and changes direction at […], n=7 (FIG. 5A). When the exterior Na^+ is replaced by K^+, the current becomes linear and the direction change potential is −0.6±0.8 mV, n=7 (FIG. 5B). hTRAAK is also activated by the polyunsaturated acid decosahexaenoate (10 μM, n=3), but is insensitive to the saturated fatty acids myristate, palmitate, stearate and arachinate (10 μM, n=6 to 8). […] The stimulation by AA of hTRAAK remains then when the patch is excised (FIG. 5C). The current induced by AA observed in an outside-out configuration is outward rectifying and changes direction at the reverse potential of K^+ (FIG. 5C, box). […] In fact, the opening of the channel is mediated by a deformation of the membrane (Maingret et al., 1999 (a); Patel et al., 1998). FIG. 5D illustrates the mechanical sensitivity of hTRAAK. In the reverse patch configuration, the activity of the channel is almost absent at atmospheric pressure. Application of negative pressure opens the channels in a dose-dependent manner.
The COS-7 cells were maintained in Eagle medium as modified by Dulbecco supplemented with 10% fetal calf's serum. The plasmid pIRES-cD8-hTRAAK was transfected using the conventional DEAE dextran procedure. […]

sensitivity of hTRAAK to K+ channel blocking agent (hTRAAK [1]; 10 μM, whole cell configuration): insensitive
SMILES: COc1ccc(Cl)cc1C(=O)NCCc1ccc(S(=O)(=O)NC(=O)NC2CCCCC2)cc1 [glibenclamide]

sensitivity of hTRAAK to K+ channel blocking agent (hTRAAK [1]; 100 μm, whole cell configuration): insensitive
SMILES: C=C[C@H]1C[N@@]2CC[C@H]1C[C@@H]2[C@@H](O)c1ccnc2ccc(OC)cc12 [quinidine]

activation of hTRAAK (hTRAAK [1]; no concentration or data printed): activated
SMILES: Nc1nc2ccc(OC(F)(F)F)cc2s1 [riluzole]

More lines, now with the values behind:

SMILES: Nc1ccncc1 [4AP]
sensitivity of hTRAAK to K+ channel blocking agent (hTRAAK [1]; 3 mM, whole cell configuration): insensitive

SMILES: CC[N+](CC)(CC)CC [TEA]
sensitivity of hTRAAK to K+ channel blocking agent (hTRAAK [1]; 10 mM, whole cell configuration): insensitive

SMILES: CCCCC/C=C\C/C=C\C/C=C\C/C=C\CCCC(=O)O [arachidonic acid]
potentiation of human TRAAK activity (hTRAAK [1]; 10 μm, whole cell configuration, at 0 mV, n=19): 630±101% | reversibility of activation (hTRAAK [1]; by means of washing): completely reversible | direction change potential of the induced current (hTRAAK [1]; exterior Na+ replaced by K+, n=7): −0.6±0.8 mV | potential at which the induced current changes direction (hTRAAK [1]; physiological conditions, n=7): -80.6 ± 0.9 mV | stimulation of hTRAAK when the patch is excised (hTRAAK [2]): remains

SMILES: CCCCCCCCCCCCCCCCCCCC(=O)O [arachinate]
sensitivity of hTRAAK to saturated fatty acids (hTRAAK [1]; 10 μM, n=6 to 8): insensitive

SMILES: [Ba+2] [barium]
sensitivity of hTRAAK to K+ channel blocking agent (hTRAAK [1]; 1 mM, whole cell configuration): insensitive

SMILES: ClC(Cl)Cl [chloroform]
effect on the channel's activity (hTRAAK [1]; 0.8 mM, n=8): no effect

SMILES: CC/C=C\C/C=C\C/C=C\C/C=C\C/C=C\C/C=C\CCC(=O)O [decosahexaenoate]
activation of hTRAAK by polyunsaturated fatty acid (hTRAAK [1]; 10 μM, n=3): activated
